The data set is described as follows: molar enthalpy of vaporization or sublimation. Conditions: 298.15 K, Static calorimetry.

Numbers after ± are expanded uncertainties.

As for `COc1cccc(OC)c1O` [1,3-dimethoxy-2-hydroxybenzene], the molar enthalpy (Crystal) is 23.5 ± 0.43 kcal/mol.
On to `COc1cccc(O)c1` [3-methoxyphenol], for which the molar enthalpy (Liquid) came to 18.1 ± 0.43 kcal/mol.
Consider `COc1ccc(O)cc1` [4-methoxyphenol], for which the molar enthalpy (Crystal) came out at 22.6 ± 0.43 kcal/mol.
Take `COc1cccc(O)c1OC` [2,3-dimethoxyphenol]: the molar enthalpy (Liquid) was 18.3 ± 0.406 kcal/mol.
`COc1ccccc1O` [2-methoxyphenol]: the molar enthalpy (Liquid) was 15 ± 0.263 kcal/mol.
Consider `COc1cc(O)cc(OC)c1` [3,5-dimethoxyphenol], for which the molar enthalpy (Crystal) was 24.2 ± 0.717 kcal/mol.

The values are drawn from the NIST ThermoML archive (doi:10.1021/je025641j).
